Marks after values point to notes of the source that are not given here.

In this assay the test system is Il1b. Description: PBMC gene expression (qPCR, 6 hours post-treatment): Il1b (Example 17). It counts as in vivo, BALB/C mice. As to the method: Hydrogels were administered as suspensions in PTP buffer. […] Tumors were excised, weighed and snap frozen.
For PBMC isolations, approximately 600 μl of whole blood was collected via cardiac puncture. The collected whole blood from each individual mouse was diluted with a 1:1 ratio of pre-warmed PBS supplemented with 2% Fetal Bovine Serum (FBS). Then an equal volume of Histopaque-1083 was added to a new sterile 15 mL conical tube, where the diluted whole blood was layered over the Histopaque-1083. The mixture was then centrifuged at 400 g for 30 minutes. […]
Lysates from untreated control samples and 6 hour treated samples were thawed and RNA was isolated using the RNeasy Mini Kit (QIAGEN) following manufacturer's recommendations. […] RNA concentrations were measured using a NanoDrop (ThermoFisher) and then adjusted to […] with RNase-free water. RNA quality was assessed using a NanoDrop (ThermoFisher). […] 200 ng of cDNA was used for quantitative PCR using the RT^2 SYBR Green ROX qPCR Master mix (2×) kit (QIAGEN) following manufacturer's recommendations. […]
Cycle thresholds (CT) were collected using a 384-well platform ABI-7900H real-time qPCR system (Applied Biosystems). […] 2^ΔΔCT values were calculated with the following formula: […]
For each gene, 3 technical replicates were analyzed per biological replicate. Undetermined technical replicate CT values were recorded as zero ΔCT values. […]

Regarding Resiquimod [Compound 4], the “Il1b Mean (2^ΔΔCT)” value is listed as 3.71†. Also, the “Il1b Fold change (4/13i)” value (ratio of 4 to 13i) amounted to 7.92.

For the origin of these results see patent US20220054477A1, “INDUCTION OF SUSTAINED LOCAL INFLAMMATION” (Ascendis Pharma Oncology Division A/S, priority 2019, published 2022).
